Results reported in patent US11040031B2, “Pyrazole derivatives as MALT1 inhibitors” (Janssen Pharmaceutica NV, priority 2018, dated 2021).
pIC50: −log10 of the molar value. Where two headings read alike, the source gives them in different places.

What was measured:
[1] = biological target: T1, full-length MALT1 protein (Strep-MALT1(1-824)-His) (Homo sapiens, UniProt Q9UDY8); assay: biochemical;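 further: fluorogenic LRSR-AMC substrate cleavage by MALT1, 50 min compound preincubation then 4 h reaction at RT, 11-point dilution from 30 µM, scaled between enzyme-free and untreated enzyme controls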
T1 sequence (Q9UDY8 1-824): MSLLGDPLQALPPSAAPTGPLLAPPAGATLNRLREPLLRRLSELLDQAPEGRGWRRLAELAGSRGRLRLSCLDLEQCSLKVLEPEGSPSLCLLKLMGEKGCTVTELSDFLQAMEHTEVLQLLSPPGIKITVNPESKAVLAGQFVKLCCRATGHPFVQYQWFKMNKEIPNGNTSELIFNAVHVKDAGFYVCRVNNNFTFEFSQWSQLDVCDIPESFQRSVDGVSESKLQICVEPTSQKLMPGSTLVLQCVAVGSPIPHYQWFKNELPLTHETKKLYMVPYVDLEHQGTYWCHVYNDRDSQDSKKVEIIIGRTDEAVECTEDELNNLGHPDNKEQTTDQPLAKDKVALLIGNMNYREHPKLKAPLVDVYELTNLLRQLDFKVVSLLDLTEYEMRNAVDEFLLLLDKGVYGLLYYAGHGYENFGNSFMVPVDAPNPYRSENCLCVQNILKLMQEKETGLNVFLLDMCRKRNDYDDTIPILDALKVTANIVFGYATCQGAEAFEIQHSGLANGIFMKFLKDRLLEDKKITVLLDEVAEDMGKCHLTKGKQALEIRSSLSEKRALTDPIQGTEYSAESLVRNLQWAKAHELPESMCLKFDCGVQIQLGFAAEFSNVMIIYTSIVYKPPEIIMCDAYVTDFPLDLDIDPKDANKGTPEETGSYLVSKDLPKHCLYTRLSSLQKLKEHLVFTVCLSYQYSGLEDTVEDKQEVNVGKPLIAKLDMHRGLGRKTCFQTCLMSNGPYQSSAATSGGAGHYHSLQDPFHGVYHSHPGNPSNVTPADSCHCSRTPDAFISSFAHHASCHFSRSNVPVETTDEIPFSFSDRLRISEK

[2] = test system: OCI-Ly3 ABC-DLBCL cell line; assay: 4-day proliferation assay OCI-Ly3; format: cell-based; conditions: Homo sapiens, read-out: Anti-proliferation: OCI-LY-3 IC50
Experimental: To assess anti-proliferative effects, MALT1 inhibitor test compounds were tested in 4-day proliferation assays using three different DLBCL cell lines.
Cells should be kept between 0.5-2.5 million cells per mL during culturing and cells should be supplemented every 2-3 days with fresh 50 μM beta-mercaptoenthanol. No beta-mercaptoethanol is used during the proliferation assay. OCI-Ly7 cells were propagated in IMDM (ThermoFisher) supplemented with 10% fetal bovine serum (HyClone), 2 mM L-glutamine (Sigma Aldrich) and 50 μg/mL Gentamycin. Cell passage numbers should not exceed 30.
10,000 TMD8, 10,000 OCI-Ly3 or 2,000 OCI-Ly7 cells were seeded in 100 μL media per well and incubated for 4 days at 37° C. and 5% CO2. Cell plating numbers were chosen based on growth curves to ensure linear cell growth. After 4 days of incubation 50 μl CellTiterGLO reagent (Promega) were added to each well and luminescence was measured on the Envision after 10 min of incubation at room temperature.

[3] = test system: Secretion of IL10 by OCI-LY3 ABC-DLBCL cells; assay: Human IL10 Mesoscale assay (OCI-LY3); format: cell-based; conditions: read-out: Human IL10 Mesoscale assay (OCI-LY3)
Outline: (§1)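 TMD8 or OCI-LY3 ABC-DLBCL cells incubated with compound 24 h at 37° C without beta-mercaptoethanol. Secreted IL6 and IL10 in supernatant quantified by MSD electrochemiluminescence immunoassay; DMSO wells define maximum signal.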

[4] = test system: Secretion of IL6 by OCI-LY3 ABC-DLBCL cells; assay: Human IL6 Mesoscale assay (OCI-LY3); format: cell-based; conditions: read-out: Human IL6 Mesoscale assay (OCI-LY3)
Outline: as §1

[5] = 96 h, 10,000 OCI-Ly3 cells per well, 4 days, CellTiterGLO
[6] = OCI-LY3 cells, 24 h incubation, supernatant, MSD V-Plex

pIC50 [1] | pIC50 [2, 5] | pIC50 ([2]; OCI-Ly3, 96 h) | pIC50 [3, 6] | pIC50 [4, 6] | pIC50 ([3]; OCI-Ly3, 24 h) | pIC50 ([4]; OCI-Ly3, 24 h) | SMILES
7.27 | 5.97 | – | – | – | – | – | N#Cc1cc(NC(=O)c2cnn(-c3ccc(F)cc3Br)c2C(F)(F)F)cnc1-n1nccn1 [Cpd 50, 1-(2-bromo-4-fluorophenyl)-N-(5-cyano-6-(2H-1,2,3-triazol-2-yl)pyridin-3-yl)-5-(trifluoromethyl)-1H-pyrazole-4-carboxamide]
6.34 | – | 6.14 | – | – | – | – | Cc1cc(F)cnc1-n1ncc(C(=O)Nc2cnc(-n3nccn3)c(Cl)c2)c1C(F)(F)F [Cpd 112, N-(5-chloro-6-(2H-1,2,3-triazol-2-yl)pyridin-3-yl)-1-(5-fluoro-3-methylpyridin-2-yl)-5-(trifluoromethyl)-1H-pyrazole-4-carboxamide]
6.79 | 5.47 | – | – | – | – | – | O=C(Nc1cnc(-n2nccn2)c(Cl)c1)c1cnn(-c2cccc(F)c2Cl)c1C(F)(F)F [Cpd 82, 1-(2-chloro-3-fluorophenyl)-N-(5-chloro-6-(2H-1,2,3-triazol-2-yl)pyridin-3-yl)-5-(trifluoromethyl)-1H-pyrazole-4-carboxamide]
7.27 | 5.81 | – | – | – | – | – | Cc1cc(F)ccc1-n1ncc(C(=O)Nc2cnc(-n3nccn3)c(C#N)c2)c1C(F)(F)F [Cpd 64, N-(5-cyano-6-(2H-1,2,3-triazol-2-yl)pyridin-3-yl)-1-(4-fluoro-2-methylphenyl)-5-(trifluoromethyl)-1H-pyrazole-4-carboxamide]
6.54 | 6.39 | – | – | – | – | – | O=C(Nc1cnc(-n2nccn2)c(Cl)c1)c1cnn(-c2ccc(F)cc2F)c1C(F)(F)F [Cpd 117, N-(5-chloro-6-(2H-1,2,3-triazol-2-yl)pyridin-3-yl)-1-(2,4-difluorophenyl)-5-(trifluoromethyl)-1H-pyrazole-4-carboxamide]
6.89 | 5.65 | – | – | – | – | – | O=C(Nc1cnc(-n2nccn2)c(Cl)c1)c1cnn(-c2ccc(F)cc2Br)c1C(F)(F)F [Cpd 83, 1-(2-bromo-4-fluorophenyl)-N-(5-chloro-6-(2H-1,2,3-triazol-2-yl)pyridin-3-yl)-5-(trifluoromethyl)-1H-pyrazole-4-carboxamide]
6.81 | 5.26 | – | – | – | – | – | O=C1NCc2c1cccc2-n1ncc(C(=O)Nc2cnc(-n3nccn3)c(Cl)c2)c1C(F)(F)F [Cpd 133, N-(5-chloro-6-(2H-1,2,3-triazol-2-yl)pyridin-3-yl)-1-(1-oxoisoindolin-4-yl)-5-(trifluoromethyl)-1H-pyrazole-4-carboxamide]
7.07 | – | – | 6.81 | 6.78 | – | – | Nc1cc(-n2ncc(C(=O)Nc3cnc(-n4nccn4)c(Cl)c3)c2C(F)(F)F)c(Cl)cn1 [Cpd 149, 1-(2-amino-5-chloropyridin-4-yl)-N-(5-chloro-6-(2H-1,2,3-triazol-2-yl)pyridin-3-yl)-5-(trifluoromethyl)-1H-pyrazole-4-carboxamide]
6.96 | – | – | – | – | 6.21 | 5.98 | Cc1c(-n2ncc(C(=O)Nc3cnc(-n4nccn4)c(C#N)c3)c2C(F)(F)F)ccnc1N [Cpd 143, 1-(2-amino-3-methylpyridin-4-yl)-N-(5-cyano-6-(2H-1,2,3-triazol-2-yl)pyridin-3-yl)-5-(trifluoromethyl)-1H-pyrazole-4-carboxamide]
6.63 | – | – | 6.62 | 6.44 | – | – | Cc1nc(-n2nccn2)c(Br)cc1NC(=O)c1cnn(-c2ccc(F)c(N)n2)c1C(F)(F)F [Cpd 181, 1-(6-amino-5-fluoropyridin-2-yl)-N-(5-bromo-2-methyl-6-(2H-1,2,3-triazol-2-yl)pyridin-3-yl)-5-(trifluoromethyl)-1H-pyrazole-4-carboxamide]
7.05 | 5.79 | – | – | – | – | – | COc1cc(F)ccc1-n1ncc(C(=O)Nc2cnc(-n3nccn3)c(C#N)c2)c1C(F)(F)F [Cpd 54, N-(5-cyano-6-(2H-1,2,3-triazol-2-yl)pyridin-3-yl)-1-(4-fluoro-2-methoxyphenyl)-5-(trifluoromethyl)-1H-pyrazole-4-carboxamide]
5.62 | 5.85 | – | – | – | – | – | N#Cc1cc(NC(=O)c2cnn(-c3cccc4c3CCNC4)c2C(F)(F)F)cnc1-n1nccn1 [Cpd 129, N-(5-cyano-6-(2H-1,2,3-triazol-2-yl)pyridin-3-yl)-1-(1,2,3,4-tetrahydroisoquinolin-5-yl)-5-(trifluoromethyl)-1H-pyrazole-4-carboxamide]
6.71 | – | – | 5.56 | 5.13 | – | – | Cc1nc(-n2nccn2)c(C#N)cc1NC(=O)c1cnn(-c2ccc(C#N)c(N)n2)c1C(F)(F)F [Cpd 177, 1-(6-amino-5-cyanopyridin-2-yl)-N-(5-cyano-2-methyl-6-(2H-1,2,3-triazol-2-yl)pyridin-3-yl)-5-(trifluoromethyl)-1H-pyrazole-4-carboxamide]
7.59 | – | – | 7.12 | 7.13 | – | – | N#Cc1ccc(-n2ncc(C(=O)Nc3cnc(-n4nccn4)c(C#N)c3)c2C(F)(F)F)nc1N [Cpd 139, 1-(6-Amino-5-cyanopyridin-2-yl)-N-(5-cyano-6-(2H-1,2,3-triazol-2-yl)pyridin-3-yl)-5-(trifluoromethyl)-1H-pyrazole-4-carboxamide]
5.93 | – | – | 6.13 | 6.06 | – | – | Cc1cc(-n2nccn2)c(Cl)cc1NC(=O)c1cnn(-c2ccc(F)c(N)n2)c1C(F)(F)F [Cpd 193, 1-(6-amino-5-fluoropyridin-2-yl)-N-(5-chloro-2-methyl-4-(2H-1,2,3-triazol-2-yl)phenyl)-5-(trifluoromethyl)-1H-pyrazole-4-carboxamide]
6.82 | – | – | 6.75 | 6.70 | – | – | Cc1cc(F)ccc1-n1ncc(C(=O)Nc2cc(Cl)c(-n3nccn3)nc2C)c1C(F)(F)F [Cpd 172, N-(5-chloro-2-methyl-6-(2H-1,2,3-triazol-2-yl)pyridin-3-yl)-1-(4-fluoro-2-methylphenyl)-5-(trifluoromethyl)-1H-pyrazole-4-carboxamide]
6.48 | – | – | 6.45 | 6.31 | – | – | Cc1ccc(N)nc1-n1ncc(C(=O)Nc2cnc(-n3nccn3)c(Cl)c2)c1C(F)(F)F [Cpd 185, 1-(6-amino-3-methylpyridin-2-yl)-N-(5-chloro-6-(2H-1,2,3-triazol-2-yl)pyridin-3-yl)-5-(trifluoromethyl)-1H-pyrazole-4-carboxamide]
6.82 | – | – | – | – | 6.80 | 6.80 | N#Cc1cc(NC(=O)c2cnn(-c3c(Cl)cc(F)cc3Cl)c2C(F)(F)F)cnc1-n1nccn1 [Cpd 102, N-(5-cyano-6-(2H-1,2,3-triazol-2-yl)pyridin-3-yl)-1-(2,6-dichloro-4-fluorophenyl)-5-(trifluoromethyl)-1H-pyrazole-4-carboxamide]
6.68 | – | – | – | – | 6.52 | 6.56 | Cc1cnccc1-n1ncc(C(=O)Nc2cnc(-n3nccn3)c(Cl)c2)c1C(F)(F)F [Cpd 158, N-(5-chloro-6-(2H-1,2,3-triazol-2-yl)pyridin-3-yl)-1-(3-methylpyridin-4-yl)-5-(trifluoromethyl)-1H-pyrazole-4-carboxamide]
7.20 | – | – | 7.20 | 7.02 | – | – | Cc1cc(C#N)ccc1-n1ncc(C(=O)Nc2cnc(-n3nccn3)c(Cl)c2)c1C(F)(F)F [Cpd 37, N-(5-chloro-6-(2H-1,2,3-triazol-2-yl)pyridin-3-yl)-1-(4-cyano-2-methylphenyl)-5-(trifluoromethyl)-1H-pyrazole-4-carboxamide]
